Test results: ChEMBL document CHEMBL1143473, “Synthesis and evaluation of 18F-labeled dopamine D3 receptor ligands as potential PET imaging agents” (Bioorg Med Chem Lett, 2005)

Legend:
[1] = Binding affinity towards 5-HT2 receptor using porcine cortical membrane and [3H]ketanserin as radioligand; design: species or system Sus scrofa
D(1A) dopamine receptor = D(1A) dopamine receptor (Sus scrofa, UniProt P50130); experiment: Binding affinity towards Dopamine receptor D1 using porcine striatal membrane and [3H]-SCH- 23390 as radioligand; design: species or system Striatum
D(3) dopamine receptor = D(3) dopamine receptor (Homo sapiens, UniProt P35462); experiment: biochemical
Description: Binding affinity towards Dopamine receptor D3 using CHO cell line and [3H]-spiperone as radioligand

D(2) dopamine receptor [2] = biological target: T1, D(2) dopamine receptor (Homo sapiens, UniProt P14416); experiment: biochemical
Description: Binding affinity towards Dopamine D2S receptor using CHO cell line and [3H]spiperone as radioligand

D(4) dopamine receptor = biological target: T2, D(4) dopamine receptor (Homo sapiens, UniProt P21917); experiment: biochemical
T2 sequence (P21917 whole entry): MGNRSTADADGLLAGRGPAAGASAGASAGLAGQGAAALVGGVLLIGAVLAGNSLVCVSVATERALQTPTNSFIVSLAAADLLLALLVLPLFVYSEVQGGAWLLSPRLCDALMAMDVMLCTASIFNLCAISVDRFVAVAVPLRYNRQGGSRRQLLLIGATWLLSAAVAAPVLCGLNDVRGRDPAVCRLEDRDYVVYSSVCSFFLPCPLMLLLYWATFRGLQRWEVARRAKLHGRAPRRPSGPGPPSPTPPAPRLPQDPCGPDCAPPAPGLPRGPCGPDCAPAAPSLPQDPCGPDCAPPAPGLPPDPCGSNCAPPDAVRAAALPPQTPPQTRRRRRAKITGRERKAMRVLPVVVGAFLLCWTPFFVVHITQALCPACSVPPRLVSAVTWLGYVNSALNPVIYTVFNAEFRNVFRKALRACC
Description: Binding affinity towards Dopamine receptor D 4.4 using CHO cell line and [3H]spiperone as radioligand

D(2) dopamine receptor [3] = biological target: T1, D(2) dopamine receptor; experiment: biochemical; remark: listed apart in the source
Description: Binding affinity towards Dopamine D2L receptor using CHO cell line and [3H]spiperone as radioligand

T1 sequence (P14416 whole entry): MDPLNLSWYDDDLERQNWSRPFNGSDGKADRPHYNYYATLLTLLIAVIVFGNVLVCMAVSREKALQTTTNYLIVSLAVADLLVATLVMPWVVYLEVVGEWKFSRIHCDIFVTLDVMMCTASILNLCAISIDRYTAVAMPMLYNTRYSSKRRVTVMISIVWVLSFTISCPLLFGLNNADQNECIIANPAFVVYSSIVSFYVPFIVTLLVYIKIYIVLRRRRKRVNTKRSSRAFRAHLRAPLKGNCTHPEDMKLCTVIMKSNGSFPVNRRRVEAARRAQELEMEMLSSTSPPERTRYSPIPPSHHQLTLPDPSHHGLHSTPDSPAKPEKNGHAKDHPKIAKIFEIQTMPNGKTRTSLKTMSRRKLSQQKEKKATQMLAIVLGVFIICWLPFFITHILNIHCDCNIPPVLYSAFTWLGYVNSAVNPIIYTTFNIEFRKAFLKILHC
D(1A) dopamine receptor, sequence (P50130 whole entry): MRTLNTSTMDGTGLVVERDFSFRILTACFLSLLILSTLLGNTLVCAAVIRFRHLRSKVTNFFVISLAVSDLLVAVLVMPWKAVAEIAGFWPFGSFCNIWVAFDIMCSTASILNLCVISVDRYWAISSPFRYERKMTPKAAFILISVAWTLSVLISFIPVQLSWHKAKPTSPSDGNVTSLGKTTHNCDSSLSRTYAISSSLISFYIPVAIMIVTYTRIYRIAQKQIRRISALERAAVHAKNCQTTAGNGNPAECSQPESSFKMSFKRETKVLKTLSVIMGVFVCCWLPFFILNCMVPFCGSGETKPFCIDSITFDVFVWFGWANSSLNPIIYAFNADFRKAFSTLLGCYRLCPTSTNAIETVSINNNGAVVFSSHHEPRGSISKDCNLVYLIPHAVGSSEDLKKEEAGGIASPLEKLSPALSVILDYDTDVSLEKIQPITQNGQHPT
D(3) dopamine receptor, sequence (P35462 whole entry): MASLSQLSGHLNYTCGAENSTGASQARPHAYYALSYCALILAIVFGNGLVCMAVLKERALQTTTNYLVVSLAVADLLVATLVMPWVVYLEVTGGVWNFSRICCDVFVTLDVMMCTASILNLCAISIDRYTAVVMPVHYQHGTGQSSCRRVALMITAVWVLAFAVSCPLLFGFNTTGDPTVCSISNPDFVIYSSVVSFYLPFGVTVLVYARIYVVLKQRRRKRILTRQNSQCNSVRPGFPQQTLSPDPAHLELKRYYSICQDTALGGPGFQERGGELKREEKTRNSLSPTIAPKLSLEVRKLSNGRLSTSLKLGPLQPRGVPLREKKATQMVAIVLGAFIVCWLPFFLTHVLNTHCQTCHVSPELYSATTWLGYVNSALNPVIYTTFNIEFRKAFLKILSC

Ki [1] [nM] | Ki (D(1A) dopamine receptor) [nM] | Ki (D(3) dopamine receptor) [nM] | Ki (D(2) dopamine receptor [2]) [nM] | Ki (D(4) dopamine receptor) [nM] | Ki (D(2) dopamine receptor [3]) [nM] | SMILES
240 | 910 | 9 | 57 | 97 | 44 | O=C(NCCCCN1CCN(c2cccc(Cl)c2Cl)CC1)c1cccc(F)n1
3200 | 4100 | 86 | 400 | 76 | 260 | COc1ccccc1N1CCN(CCCCNC(=O)c2cccc(F)n2)CC1
– | 3500 | 210 | 120 | 9.9 | 72 | COc1ccccc1N1CCN(CCCCNS(=O)(=O)c2ccc(F)cc2)CC1

Second part, the molecule before the results:

SMILES | Ki [1] [nM] | Ki (D(1A) dopamine receptor) [nM] | Ki (D(3) dopamine receptor) [nM] | Ki (D(2) dopamine receptor [2]) [nM] | Ki (D(4) dopamine receptor) [nM] | Ki (D(2) dopamine receptor [3]) [nM]
COc1ccccc1N1CCN(CCCCNC(=O)c2ccc(F)cc2)CC1 | 2300 | – | – | – | – | –
O=C(NCCCCN1CCN(c2cccc(Cl)c2Cl)CC1)c1ccc(F)cc1 | 230 | 920 | 0.53 | 18 | 44 | –
O=S(=O)(NCCCCN1CCN(c2cccc(Cl)c2Cl)CC1)c1ccc(F)cc1 | 830 | 1800 | 16 | 49 | 17 | 39
COc1ccccc1N1CCN(CCCCNC(=O)c2ccc(F)nc2)CC1 | 3700 | 6300 | 14 | 240 | 130 | 160
O=C(NCCCCN1CCN(c2cccc(Cl)c2Cl)CC1)c1ccc(F)nc1 | 84 | 1300 | 1.1 | 29 | 100 | 21
O=C(NCCCCN1CCN(c2cccc(Cl)c2Cl)CC1)c1cc2ccccc2s1 | 3000 | – | – | – | – | –
